This is an account of results in paper PMC11802738 (Nature Communications, 2025).

In test [1] the target is SpNanA (GRAB-Sia = SpNanA D372N) (Streptococcus pneumoniae, UniProt P62576, D372N). To be noted: PBS; 50 μM protein in cell, 1 mM ligand in syringe; monomeric GRAB-Sia.
Test [2] concerns the target T1, RgNanH (GRAB-Sia3 = RgNanH D282A) (Mediterraneibacter gnavus, UniProt A7B557, D282A).
T1 sequence (A7B557 243-723 D282A): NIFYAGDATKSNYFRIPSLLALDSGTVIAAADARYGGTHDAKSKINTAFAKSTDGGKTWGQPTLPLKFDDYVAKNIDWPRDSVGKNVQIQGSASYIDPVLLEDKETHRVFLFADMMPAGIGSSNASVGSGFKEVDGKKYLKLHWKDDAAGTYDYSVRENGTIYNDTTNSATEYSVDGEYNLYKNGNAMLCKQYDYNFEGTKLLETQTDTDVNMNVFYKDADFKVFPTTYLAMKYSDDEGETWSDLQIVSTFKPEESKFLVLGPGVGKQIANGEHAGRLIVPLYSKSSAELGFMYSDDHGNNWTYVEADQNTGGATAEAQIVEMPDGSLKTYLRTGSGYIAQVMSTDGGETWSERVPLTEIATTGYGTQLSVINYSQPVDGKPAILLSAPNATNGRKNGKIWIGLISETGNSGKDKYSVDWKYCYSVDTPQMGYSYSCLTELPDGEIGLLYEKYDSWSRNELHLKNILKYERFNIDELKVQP
The experiment in a line: isothermal titration calorimetry. It is filed as binding. The note with it: PBS; 50 μM protein in cell, 1 mM ligand in syringe; monomeric GRAB-Sia3. Background: In ITC the heat of successive injections is recorded.

For orientation: Kd means the constant that tells how readily two partners part at equilibrium. For the molecule `CC(=O)N[C@H]1[C@H]([C@H](O)[C@H](O)CO)O[C@@](OC[C@H]2O[C@@H](O[C@H]3[C@H](O)[C@@H](O)C(O)O[C@@H]3CO)[C@H](O)[C@@H](O)[C@H]2O)(C(=O)O)C[C@@H]1O` (stereo partly drawn) [6′SL], the Kd in test [1] was 19.1 µM.
Turning to `CC(=O)N[C@H]1[C@H]([C@H](O)[C@H](O)CO)O[C@@](O[C@H]2[C@@H](O)[C@@H](CO)O[C@@H](O[C@H]3[C@H](O)[C@@H](O)C(O)O[C@@H]3CO)[C@@H]2O)(C(=O)O)C[C@@H]1O` (stereo partly drawn) [3′SL], the Kd in test [2] is 7.15 µM; in test [1] it was 17.8 µM.
